These compounds were tested against T1, viral reverse transcriptase (Human immunodeficiency virus type 1 group M subtype B, UniProt P04585) (assay: Viral reverse transcriptase inhibition, cell free assay). Settings: 100 μM; poly rC or poly rG template.
T1 construct: Viral reverse transcriptase is found in extracts from bacterial clones; made in house; host or cells: Escherichia coli (extracts of bacterial clones, by the procedure of Larder et al., EMBO J. 6:3133-3137, 1987)
Type: biochemical, human immunodeficiency virus (HIV-1)
Text: The utility of the diaromatic substituted piperazines (III), the anti-AIDS piperazines (IV) and the indoles (V) of this invention can be determined by their ability to inhibit viral reverse transcriptase, an enzyme essential for human immunodeficiency virus replication. This enzyme has characteristics which differentiate it from other known cellular polymerases and it is a unique enzyme which is not found in uninfected cells. Viral reverse transcriptase is found in extracts from bacterial clones prepared according to the procedure described in AIDS Virus Reverse Transcriptase defined by high level expression in Escherichia coli, EMBO J. 6:3133-3137 (1987). Inhibition of this enzyme is determined in a cell free assay which measures the level of radioactive precursors incorporated into DNA. Extracts prepared according to the procedure of Science, 1125-1129 (1981) are incubated in a mixture of inhibitor, 20 mM dithiothreitol, 60 mM sodium chloride, 0.05% NP-40, 10 mM magnesium chloride, 50 mM Tris pH 8.3, 10 μM [^35 S]-labeled deoxynuleoside-5'-triphosphate, 10 μg/ml RNA template (poly rC or poly rG) and 5 μg/ml DNA primer (oligo dG or oligo dT) for 30 minutes at 37° C. Incorporation of radio-labeled percursor is determined by spotting aliquots of the reaction mixture on DE81 paper, washing the papers to remove unincorporated percursor, drying and determining counts. The results (IC50 means the concentration, in μM of drug, required to inhibit the reverse transcriptase activity to the extent of 50%) of various assay(s) are combined and reported as % inhibition and IC50 (calculated).
^1 Viral reverse transcriptase is found in extracts from bacterial
clones prepared according to the procedure described by Larder, B.,
Purifoy D., Powell, K. and Darby, G., AIDS virus reverse transcriptase
defined by high level expression in Escherichia coli., EMBO J. 6,
3133-3137 (1987). Inhibition of this enzyme is determined in a cell free
assay which measures the level of radioactive precursors incorporated int
DNA. Extracts prepared according to the procedure of Kleid, D. G., et
al., Science, 1125-1129 (1981) are incubated in a mixture of inhibitor, 2
mM dithiothreitol, 60 mM sodium chloride, 0.05% NP40, 10 mM magnesium
chloride, 50 mM Tris pH 8.3, 10 μM [^35 Slabeled
deoxynucleoside5triphosphate, 10 μg/ml RNA template (poly rC or poly
rG) and 5 μg/ml DNA primer (oligo dG or oligo dT) for 15 minutes at
37°. Incorporation of radio labeled precursor is determined by
harvesting the trichloroacetic acid precipitated reaction mixtures on
glass fiber filters, drying, and determining counts. The results of
various assays are combined and reported as % inhibition at a 100 μM

| Compound | RT % INHIBITION (100 μM) |
| --- | --- |
| CC(C)Nc1cccnc1N1CCN(C(=O)c2cc3cc(OCC(=O)O)ccc3[nH]2)CC1 [Example 68, 1-[5-(Carboxymethoxy)indolyl-2-carbonyl]-4-[3-(1-methylethylamino)-2-pyridinyl]piperazine] | 78-95% |

Same assay, conditions: read-out: RT % INHIBITION (100 μM), 100 μM; poly rC or poly rG template

| Compound | inhibition at 100 µM |
| --- | --- |
| CCNc1cccnc1N1CCN(C(=O)c2cc3cc(OCc4ccccc4)ccc3[nH]2)CC1 [Example 35, 1-[5-Benzyloxyindolyl-2-carbonyl]-4-[3-(ethylamino)-2-pyridinyl]piperazine] | 57 to 70% |
| CC(C)(C)Nc1nccnc1N1CCN(C(=O)c2cc3cc(F)ccc3[nH]2)CC1 [Example 51, 1-[5-Fluoroindolyl-2-carbonyl]-4-[3-(1,1-dimethylethylamino)-2-pyrazinyl]piperazine] | 55% |
| O=C(c1cc2ccccc2[nH]1)N1CCN(c2nccnc2NC2CC2)CC1 [Example 57, 1-(Indolyl-2-carbonyl)-4-(3-cyclopropylamino-2-pyrazinyl)piperazine] | 52 to 65% |
| CC(C)Nc1cccnc1OCCOC(=O)c1cc2ccccc2[nH]1 [Example 59, 2-(2-(Indolyl-2-carboxy)ethoxy)-3-(1-methylethylamino)pyridine] | 61 to 75% |
| CC(C)Nc1cccnc1N1CCN(C(=O)c2cc3cc(OCC(=O)OCc4ccccc4)ccc3[nH]2)CC1 [Example 67, 1-[5-(Benzyloxycarbonylmethoxy)indolyl-2-carbonyl]-4-[3-(1-methylethylamino)-2-pyridinyl]piperazine] | 60 to 84% |
| COc1c(C)cc(C(=O)N2CCN(c3ncccc3NC(C)C)CC2)cc1C [Example 78, 1-[3,5-Dimethyl-4-methoxybenzoyl]-4-[3-(1-methylethylamino)-2-pyridinyl]piperazine] | 74% |
| CCNc1cccnc1N1CCN(Cc2cc3cc(OC)ccc3[nH]2)CC1 [Example 80] | 61 to 70% |
| CC(C)Nc1cccnc1N1CCN(C(=O)c2cc3cc(Br)ccc3[nH]2)CC1 [Example 93, 1-[5-Bromoindolyl-2-carbonyl]-4-[3-(1-methylethylamino)-2-pyridinyl]piperazine] | 87% |
| CCC(CC)Nc1cccnc1N1CCN(C(=O)c2cc3ccccc3[nH]2)CC1 [Example 100] | 81 to 82% |
| COc1ccc2[nH]c(C(=O)N(C)CCN(C)c3ncccc3NC(C)C)cc2c1 [Example 107, N,N'-Dimethyl-N-(5-methoxyindolyl-2-carbonyl)-N'-[3-(1-methylethylamino)-2-pyridyl]ethylenediamine] | 77 to 87% |
| CC(C)Nc1cccnc1N(C)CCN(C)C(=O)c1cc2cc(F)ccc2[nH]1 [Example 108, N,N'-Dimethyl-N-(5-fluoroindolyl-2-carbonyl)-N'-(3-(1-methylethylamino)-2-pyridyl)ethylenediamine] | 77 to 89% |
| CC(C)Nc1cccnc1N1CCN(C(=O)c2cc3cccnc3[nH]2)CC1 [Example 109] | 56 to 82% |
| CCNc1cccnc1N(C)CCCN(C)C(=O)c1cc2ccccc2[nH]1 [Example 111] | 86 to 92% |
| CCNc1cccnc1N(C)CCCCCCN(C)C(=O)c1cc2ccccc2[nH]1 [Example 112] | 74 to 82% |
| CC(C)Nc1cccnc1N1CCN(C(=O)c2cc3ccc(C=O)cc3[nH]2)CC1 [Example 113] | 92 to 96% |
| O=C(c1cc2ccccc2[nH]1)N1CCN(c2ncccc2NCCF)CC1 [Example 117, 1-[Indolyl-2-carbonyl]-4-[3(2-fluoroethylamino)-2-pyridinyl]piperazine] | 92% |
| CC(C)(C)Nc1ccnnc1N1CCN(C(=O)c2cc3cc(OCc4ccccc4)ccc3[nH]2)CC1 [Example 119, 1-[5-Benzyloxyindolyl-2-carbonyl]-4-[4-(1,1-dimethylethylamino)-2-pyridazinyl]piperazine] | 53 to 58% |
| CC(C)(C)Nc1ccnnc1N1CCN(C(=O)c2cc3cc(O)ccc3[nH]2)CC1 [Example 120, 1-[5-Hydroxyindolyl-2-carbonyl]-4-[4-(1,1-dimethylethylamino)-2-pyridazinyl]piperazine] | 87 to 90% |
| CC(C)Nc1cccnc1N1CCN(C(=O)c2cc3ccc4ccccc4c3[nH]2)CC1 [Example 121, 1-[Benz[g]indolyl-2-carbonyl]-4-[3-(1-methylethylamino)-2-pyridinyl]piperazine] | 64 to 70% |
| CC(C)Nc1cccnc1N1CCN(C(=O)c2cc3c(ccc4ccccc43)[nH]2)CC1 [Example 122, 1-[Benz[e]indolyl-2-carbonyl]-4-[3-(1-methylethylamino)-2-pyridinyl]piperazine] | 84% |
| CCNc1cccnc1N(C)CCN(C)C(=O)c1cc2ccccc2[nH]1 [Example 123, N,N'-Dimethyl-N-(indolyl-2-carbonyl)-N'-(3-ethylamino-2-pyridyl)ethylenediamine] | 47 to 60% |
| CC(C)Nc1cccnc1N1CCN(C(=O)c2cccc3cc[nH]c23)CC1 [Example 128, 1-[Indolyl-7-carbonyl]-4-[3-(1-methylethylamino)-2-pyridinyl]-piperazine] | 89 to 98% |
| CC(C)Nc1cccnc1N1CCN(C(=O)c2cccc3c2NCC3)CC1 [Example 129, 1-[2,3-Didehydroindolyl-7-carbonyl]-4-[3-(1-methylethylamino)-2-pyridinyl]piperazine] | 68 to 84% |
| CCNc1cccnc1N1CCN(C(=O)c2cccc3c2NCC3)CC1 [Example 130] | 48 to 59% |
| CC(C)Nc1cccnc1N(C)C1CCN(C(=O)c2cc3ccccc3[nH]2)CC1 [Example 131, 1-(Indolyl-2-carbonyl)-4-(N-methyl-N-(3-(1-methylethylamino)-2-pyridinyl)amino)piperidine] | 85 to 97% |
